Results: patent US20250109165A1, “CYCLOPHILIN INHIBITORS AND USES THEREOF” (The Broad Institute, Inc., priority 2022, published 2025)
Several values for one entry are separate records, joined by “and”; a condition that tells them apart may be missing. Equal values may be shown once. Read-outs that look alike come from different tables or passages of the source.

What was measured:
CypD = biological target: T1, CypD (Homo sapiens, UniProt P30405); assay: Chymotrypsin coupled prolyl-isomerase assay; type: biochemical
T1 construct: PPIF (UniProtKB Entry P30405: res 45-207); made in house; host or cells: E. coli BL21(DE3)
Description: (§1) IC50 values were calculated to be the value at which 50% inhibition was achieved on each compound's non-linear regression fitted curve.

cyclophilins = assay: Prolyl-isomerase inhibition screen on cyclophilins and cyclophilin mutants; type: biochemical, human
Description: as §1

[1] = system: mPTP opening in isolated mouse liver mitochondria; assay: Mitochondrial calcium retention capacity assay; type: cell-based; details: 2 μM CsA, 10 μM B52-Cy5, 10 μM *B52-Cy5, 20 μM B53-Cy5, 20 μM *B53-Cy5; pulses of 60 μM CaCl2; compared to DMSO control
Description: Isolation of mouse liver mitochondria: All procedures used in animal studies were approved by the Institutional Animal Care and Use Committee at Massachusetts General Hospital. Female C57B1/6 J mice (Jackson Labs) age 10-12 weeks were anesthetized by isoflurane. The liver from one mouse was rinsed in ice-cold PBS, minced in ice-cold isolation buffer containing 0.28 M sucrose, 10 mM Hepes-KOH pH 7.2, 0.2 mM EDTA and 1% (w/v) BSA, gently homogenized with 4 strokes of a tight-fitting Teflon pestle at 1000 rpm, and then centrifuged for 10 minutes at 600 g at 4° C. The supernatant was recovered and centrifuged for 10 minutes at 8000 g at 4° C. The loose outer buffy coat was rinsed off and the pellet resuspended gently in isolation buffer and the spins were repeated. […] The suspension was kept on ice and all assays performed within 4-6 hours following isolation. Quality control was done with every preparation by adding 250 mcg mitochondria to 500 μl of assay buffer containing 137 mM KCl, 10 mM Hepes-KOH pH 7.2, 2.5 mM MgCl2, 5 mM each of glutamate and malate, and 3 mM KH2PO4. Sequential 150 μM ADP pulses were then delivered. Preparations with respiratory control ratio>6 (as assessed by the ratio of ADP-coupled state 3 respiration to state 4 respiration) were used for further experiments. Measurements were made in a custom-built fluorimeter using a cuvette with a Red Eye oxygen patch (Ocean Optics) and an optical probe that is connected to the fluorimeter.
Mitochondrial calcium retention capacity assays: 250 mcg of mouse liver mitochondria isolated as above were added to […] of assay buffer containing 125 mM KCl, 20 mM Hepes-KOH pH 7.2, 1 mM MgCl2, 5 mM each of glutamate and malate, and 3 mM KH2PO4. 0.5 μM Calcium Green-5N (Molecular Probes) was included to monitor extramitochondrial free Ca^2+. Fluorescence was continuously monitored in the custom-built fluorimeter described above, with excitation 470 nm and emission […]. Sequential 60 μM CaCl2) pulses were delivered until Ca^2+ uptake ceased and an abrupt release of previously taken up Ca^2+ was observed, consistent with mPTP opening. The calcium retention capacity ratio (CRC) was obtained by normalizing the number of Ca^2+ pulses that could be taken up in a given condition by that taken up under DMSO control conditions, as previously described^72.

HeLa cells = assay: Fluorescence microscopy on HeLa cells; type: cell-based, human; details: Cy5 labeled compound 6 μM
Description: Fluorescence microscopy on Hela cells. Into 96 well black, clear bottom TC treated plates, cells were seeded in Dulbecco's Modified Eagle Medium (DMEM) supplemented with 10% fetal bovine serum 24 hours prior at a density where wells were ˜80% confluent at time of experiment. Media was removed and cells were then stained with 50 μL of mixture containing Cy5 labeled compound (6 μM) in Kreb's ringer solution HEPES buffered pH 7.2 (KRB), for 1 hour at 37° C. Then, 50 μL Hoechst 33342 (8 μM) and Mitotracker Green FM (0.1 μM) in KRB was added directly to wells containing cells and incubated for 15 minutes at 37° C. Media was removed and cells were washed two times with 100 μL KRB. Cells were then kept adherent to the wells in 100 μL KRB for imaging. Fluorescence microscopy was conducted on an Opera Phenix Plus High-Content Screening System, using Alexa 488, Alexa 647, and Hoescht 33342 channels. Images were analyzed using Harmony 4.9.

CypE [2] = biological target: T2, CypE (Homo sapiens, UniProt Q9UNP9); assay: Chymotrypsin coupled prolyl-isomerase assay; type: biochemical; details: for IC50: wild-type CypE
T2 construct: PPIE (UniProtKB Entry Q9UNP9: res 131-301); host or cells: E. coli BL21(DE3)
Description: as §1

CypE K217A [3] = biological target: T3, CypE K217A (Homo sapiens, UniProt Q9UNP9, K217A); assay: Chymotrypsin coupled prolyl-isomerase assay; type: biochemical
T3 construct: Lane 5-GS-CypE K217A (131-301); His6 tag (N, cleaved yes); made in house; host or cells: E. coli BL21(DE3)
Description: as §1

CypE [4] = biological target: T2, CypE; assay: Competition anisotropy (fluorescence polarization) binding assay with A26-Fl; details: for CypE binding in FP competition (in words): compared to C3A
Description: (§2) Competition anisotropy binding assay with A26-Fl: Adapted from previous work^54, into a flat-bottom black untreated 96 well plate (Corning), cyclophilin in assay buffer (25 mM HEPES pH 8.0, 100 mM NaCl, 0.01% Triton X-100) at a predetermined concentration from FIG. 27 was incubated with 0.5 nM A26-Fl for 10 minutes at room temperature. Competitor macrocycle was then added to each well and incubated for 24 hours. Final assay volume was 100 μL with 0.25% DMSO. Fluorescence anisotropy was then measured using a Tecan Spark® plate reader using 492 nm/523 nm excitation/emission settings. Raw fluorescence polarization data was normalized to protein+fluorescent probe and buffer+fluorescent probe and Ki values were calculated using one site-competitive binding equation with Prism 9, importing Kd values from A26-Fl (FIGS. 12A-12C).

CypE K217A [5] = biological target: T3, CypE K217A; assay: as above
Description: as §2

CypE [6] = biological target: T2, CypE; assay: Assessment of covalent modification by mass spectrometry; details: after treatment with NaCNBH3
Description: Assessment of covalent modification of CypE and other cyclophilin proteins: Into PCR strip, CypE or other cyclophilin in assay buffer (25 mM HEPES pH 8.0, 100 mM NaCl, 0.01% Triton X-100) was incubated with compound for 1 hour at room temperature. Final concentrations were 20 μM CypE, 100 μM compound, 0.5% DMSO, at a final volume of 20 μL. For analysis of lysine-iminoboronate modification, samples were directly submitted to Harvard's Center for Mass Spectroscopy for LC-MS analysis. For amine-lysine modification, samples were treated with 5 μL of 125 mM sodium cyanoborohydride dissolved in 25 mM Ammonium bicarbonate solution (pH 8.0) and incubated for 4 hours at room temperature. For all other wild-type cyclophilins, protein was treated for 4 hours with C3A, followed by 16 hour treatment with NaCNBH3. Final [NaCNBH3]=25 mM. Samples were then submitted for LC-MS as described above.

T2 sequence (Q9UNP9 131-301): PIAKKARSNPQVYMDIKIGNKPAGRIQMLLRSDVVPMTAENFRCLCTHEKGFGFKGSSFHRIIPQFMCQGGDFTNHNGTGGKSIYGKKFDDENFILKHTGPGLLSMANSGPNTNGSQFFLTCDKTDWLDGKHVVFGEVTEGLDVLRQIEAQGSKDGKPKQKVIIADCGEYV
T3 sequence (Q9UNP9 131-301 K217A): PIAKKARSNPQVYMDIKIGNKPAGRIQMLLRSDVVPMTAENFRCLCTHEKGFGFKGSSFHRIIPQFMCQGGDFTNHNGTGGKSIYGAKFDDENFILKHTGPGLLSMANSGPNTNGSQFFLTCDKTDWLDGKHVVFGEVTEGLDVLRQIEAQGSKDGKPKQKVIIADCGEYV
T1 sequence (P30405 45-207): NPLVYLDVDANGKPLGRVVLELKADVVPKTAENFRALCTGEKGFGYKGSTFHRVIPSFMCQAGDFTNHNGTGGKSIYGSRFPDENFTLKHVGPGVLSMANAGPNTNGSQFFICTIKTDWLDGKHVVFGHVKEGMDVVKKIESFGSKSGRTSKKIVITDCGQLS

C[N+]1=C(/C=C/C=C/C=C2\N(CCCCCC(=O)NCCNC(=O)[C@H]3CCNC(=O)/C=C/C(=O)N4CCC[C@@](Cc5ccccc5)(C4)C(=O)N[C@H](Cc4ccc(-c5ccc(CC(C(=O)O)C(=O)O)cc5)cc4)C(=O)NCc4ccccc4CC(=O)N3)c3ccccc3C2(C)C)C(C)(C)c2ccccc21 [*B52-Cy5]
CypD prolyl-isomerase inhibition (in words) (CypD): did not inhibit CypD | inhibition of cyclophilins tested (in words) (cyclophilins): no substantial inhibition profile | calcium retention capacity prior to mPTP opening [1]: did not influence calcium retention capacity | mitochondrial localization (overlap with Mitotracker Green) (HeLa cells): poor mitochondrial localization and fluorescence

C[N+]1=C(/C=C/C=C/C=C2\N(CCCCCC(=O)NCCNC(=O)[C@H]3CCNC(=O)/C=C/C(=O)N4CCC[C@@](Cc5ccccc5)(C4)C(=O)N[C@H](Cc4ccc(-c5ccc(C(CC(=O)O)CC(=O)O)cc5)cc4)C(=O)NCc4ccccc4CC(=O)N3)c3ccccc3C2(C)C)C(C)(C)c2ccccc21 [*B53-Cy5]
CypD prolyl-isomerase inhibition (in words) (CypD): did not inhibit CypD | inhibition of cyclophilins tested (in words) (cyclophilins): no substantial inhibition profile | calcium retention capacity prior to mPTP opening [1]: did not influence calcium retention capacity | mitochondrial localization (overlap with Mitotracker Green) (HeLa cells): poor mitochondrial localization and fluorescence

CN1/C(=C/C=C/C=C/C2=[N+](CCCCCC(=O)NCCNC(=O)[C@@H]3CCNC(=O)/C=C/C(=O)N4CCC[C@](Cc5ccccc5)(C4)C(=O)N[C@@H](Cc4ccc(-c5ccc(C(CC(=O)O)CC(=O)O)cc5)cc4)C(=O)NCc4ccccc4CC(=O)N3)c3ccccc3C2(C)C)C(C)(C)c2ccccc21 [Compound B53-Cy5]
cyclophilin selectivity profile (in words) (cyclophilins): retain the same selectivity profile | calcium retention capacity prior to mPTP opening [1]: increased calcium retention capacity | mitochondrial localization (overlap with Mitotracker Green) (HeLa cells): poor mitochondrial localization and fluorescence | plasma membrane / mammalian cell permeability (HeLa cells): not observed

NC(=O)[C@@H]1CCNC(=O)/C=C/C(=O)N2CCC[C@](Cc3ccccc3)(C2)C(=O)N[C@@H](Cc2ccc(-c3ccc(C=O)c(B(O)O)c3)cc2)C(=O)NCc2ccccc2CC(=O)N1 [Compound C3A]
CypE potency and selectivity in prolyl isomerase assay (in words) (CypE [2]): good selectivity and potency for CypE | IC50 more potent for CypE than for the other ten cyclophilins screened (CypE [2]): 30-750 fold | higher CypE inhibition potency of C3A over C5A (CypE [2]): 75 fold | selectivity for CypE over CypA (CypE [2]): > 100 fold | IC50 (CypE [2]; read-out: IC50 against CypE prolyl isomerase activity): 13 nM | inhibition of CypE K217A compared to wild-type (in words) (CypE K217A [3]): Loss of C3A inhibition potency | less potent at inhibiting K217A prolyl isomerase activity compared to wild-type CypE (CypE K217A [3]): 150 fold | IC50 (CypE K217A [3]; CypE K217A mutant, read-out: IC^CypEK217A50): 2000 nM | Ki (CypE [4]; 0.5 nM A26-Fl, wild-type CypE, read-out: Ki, inhibition of A26-Fl binding to CypE): 72 nM | more potency for CypE than for other tested cyclophilins (CypE [4]; FP competition with A26-Fl, lysine-containing cyclophilins): > 10 fold | CypE binding in FP competition (in words) (CypE [4]): selectivity for CypE | less potent at competing A26-Fl off of CypE K217A compared to wild-type CypE (CypE K217A [5]): 40 fold | Ki (CypE K217A [5]; 0.5 nM A26-Fl, CypE K217A, read-out: K^CypEK217Ai): 3100 nM | binding to CypE K217A compared to wild-type (in words) (CypE K217A [5]; FP competition with 0.5 nM A26-Fl): significantly attenuated binding | mass shift of covalent adduct with CypE (CypE [6]): 806 Da and 779 Da and 807 Da

NC(=O)[C@@H]1CCNC(=O)/C=C/C(=O)N2CCC[C@](Cc3ccccc3)(C2)C(=O)N[C@@H](Cc2ccc(-c3ccc(C=O)cc3)cc2)C(=O)NCc2ccccc2CC(=O)N1 [Compound C5A]
CypE potency and selectivity in prolyl isomerase assay (in words) (CypE [2]): loss in CypE potency and promiscuous cyclophilin inhibition | IC50 (CypE [2]; read-out: IC50^CypE): 1000 nM | decrease in potency relative to C3A (CypE [4]; FP competition with A26-Fl against CypE): 16 fold | CypE binding in FP competition (in words) (CypE [4]): attenuated inhibition of CypE | mass shift of covalent adduct with CypE (CypE [6]): 806 Da and 780 Da
